Data from patent publication US20080166766A1, “Genetic incorporation of unnatural amino acids into proteins in mammalian cells” (The Scripps Research Institute, priority 2006, published 2008).

Legend:
[1] = Decay of azido amino acid seen in tandem MS of mutant GFP; format: physicochemical; settings: mutant GFP containing pAzpa; azido group chemically reactive and photo-unstable
Experimental: The mutant GFP containing pAzpa was only weakly detectable. […] The data from all five mutant proteins indicate the high selectivity and fidelity of the incorporation of unnatural amino acids.
(§1) Nano-RP LC/MS/MS was performed with an HPLC pump, autosampler (Agilent Technologies, Palo Alto, Calif.), and an LTQ Orbitrap hybrid mass spectrometer (ThermoElectron, San Jose, Calif.). Tryptic digests were loaded with a pressure bomb onto a 75 μm i.d. precolumn packed with 4 cm of 5-μm Monitor C18 particles (Column Engineering, Ontario, Calif.) at a flow rate of approximately 2 μl/min. The precolumn was then connected to the HPLC pump and after several minutes of washing with solvent A the analytical column with integrated emitter tip (360 μm O.D.×75 μm i.d; 10 cm of 5 μM C18, ˜5-μm tip) was connected in series. The chromatographic profile was from 100% solvent A (0.1% aqueous acetic acid) to 50% solvent B (0.1% acetic acid in acetonitrile) in 40 min; the flow rate through the analytical column was ca. 100 nl/min.

[2] = test system: T-REx™ CHO cells; test: Yield of purified mutant GFP containing unnatural amino acid (pSWAN two-plasmid system); format: cell-based, Chinese hamster; settings: pMpa 10 mM, pApa 10 mM, pBpa 1 mM, pAzpa 5 mM, pPpa 1 mM in media, anti-myc column purified
Text: The pMpaRS gene was inserted directly after the non-regulated CMV promoter for efficient and continuous expression of pMpaRS. Another plasmid (pSWAN-GFP37TAG in FIG. 4B) containing both three tandem repeats of the BstRNACUA^Tyr gene and the GFP37TAG gene was also constructed. The gene encoding GFP37TAG was inserted after a Tet-regulated CMV promoter to minimize potential read-through of the nonsense amber codon caused by endogenous amber suppression in mammalian cells. These two plasmids were then assayed for their suppression efficiency. Because both plasmids contain three tandem repeats of the BstRNACUA^Tyr gene, varying the ratio of the two plasmids to increase the suppression level is not expected to change the total amount of the BstRNACUA^Tyr gene transfected into cells. Under optimized transfection conditions (0.5 μg of pSWAN-pMpaRS and 2.5 μg pSWAN-GFP37TAG per 2×10^6 cells), the suppression level is roughly two-fold higher than that using the three plasmids pUC18-3BstRNACUA^Tyr, pcDNA4-pMpaRS, and pcDNA4-GFP37TAG (the suppression level was determined by the number of fluorescent cells). Cells were grown for 1-2 days after induction and kept viable before harvesting. The yield of mutant GFP containing pMpa (GFP-pMpa) was also quantified. In the presence of 10 mM pMpa in the growth media, 1 μg of mutant GFP can be obtained from 2×10^7 adhesive T-REx™ CHO cells.
Transient transfection of T-REx™ CHO and 293 cells with the pSWAN-EcTyrRS variants and pSWAN-GFP37TAG (0.5 μg of pSWAN-EcTyrRS variant and 2.5 μg of pSWAN-GFP37TAG per 2×10^6 cells) all afforded roughly two-fold higher suppression levels than for the three plasmids pUC18-3BstRNACUA^Tyr, pcDNA4-EcTyrRS variant, and pcDNA4-GFP37TAG (with the exception of the pIpa specific variant). Mutant GFPs containing pApa, pBpa, pAzpa or pPpa were also expressed in T-REx™ CHO cells transfected with the pSWAN-EcTyrRS variants and pSWAN-GFP37TAG and grown in media containing the corresponding unnatural amino acid (pApa, 10 mM; pBpa, 1 mM; pAzpa, 5 mM; or pPpa, 1 mM) for 1-2 days, and purified using an anti-myc antibody column. The yields of the mutant proteins containing pApa and pAzpa were close to that for pMpa (˜1 μg per 2×10^7 cells), and the yields of mutant proteins containing pBpa and pPpa were somewhat lower (˜0.7 μg per 2×10^7 cells). Because the expression levels of EcTyrRS variants in T-REx™ CHO cells are similar, the lower yield of the mutant proteins containing pBpa and pPpa may be due to the low concentrations of unnatural amino acids in the media.
pSWAN-EcTyrRS variants and pSWAN-GFP37TAG were used to express mutant GFPs containing unnatural amino acids. T-REx™ CHO cells (Invitrogen™) were grown in 75 cm^2 tissue culture flasks (BD Biosciences) to 80-90% confluency and transfected with 2 μg of pSWAN-EcTyrRS and 10 μg pSWAN-GFP37TAG using […] FuGENE® 6. After overnight incubation, the media were changed to the fresh media containing the unnatural amino acid (pMpa, 10 mM; pApa, 10 mM; pBpa, 1 mM; pAzpa, 5 mM; and pPpa, 1 mM) and 1 μg/ml tetracycline. Cells were then grown for 1-2 days at 37° C. before harvesting, and then lysed with RIPA lysis buffer. The supernatant from the cell lysate was dialyzed against and equilibrated with PBS buffer before loading onto an anti-myc antibody agarose column (Sigma). The column was washed with 15 column volumes of PBS buffer and then eluted with 0.1 M ammonium hydroxide. The purified proteins were neutralized with 0.1 M acetic acid and analyzed by SDS-PAGE. […]

[3] = test system: position 37 of GFP; test: Fidelity of unnatural amino acid incorporation by mass spectrometry (nano-RP LC/MS/MS, ESI TOF-MS); settings: nano-RP LC/MS/MS of tryptic fragments, mutant GFP from T-REx CHO cells
Text: To further characterize GFP-pMpa, the mutant protein was expressed in T-REx™ CHO cells transiently transfected with both pSWAN-pMpaRS and pSWAN-GFP37TAG. The protein was purified using an anti-myc antibody agarose column and then separated by SDS-PAGE. The GFP-pMpa band from the SDS-PAGE gel was digested with trypsin and analyzed by nanoscale reversed-phase liquid chromatography/mass spectrometry/mass spectrometry (nano-RP LC/MS/MS). In parallel, wild type GFP was purified from cells transfected with pcDNA4-GFP and subjected to the same analysis.
Proteolysis of affinity purified proteins (performed for wild-type and pBpa samples) was carried out by overnight incubation of proteins at 37° C. with sequencing-grade modified trypsin (Promega) using a substrate/enzyme ratio of 10:1 (wt/wt) based on the estimated protein concentration in 100 mM triethylammonium bicarbonate buffer (pH 8.5). In-gel digestions (performed for pMpa, pAzpa, pApa, and pPpa samples) were performed according to a modified EMBL procedure (see the website for EMBL, Heidelberg, Germany, Bioanalytical Research Group). Briefly, gel slices were excised to approximately 1 mm×1 mm cubes, washed for 5 minutes with water, 15 minutes with acetonitrile, and dried in a vacuum centrifuge before being rehydrated at 0° C. for 30 minutes with 12.5 ng/μl of sequencing-grade modified trypsin in 50 mM triethylammonium bicarbonate buffer (pH 8.5). Excess buffer was removed and 20 μl of 50 mM triethylammonium bicarbonate buffer (pH 8.5) was added to the gel slices before incubating at 37° C. overnight. Peptides were extracted from the gel slices as described in the protocol.
as §1
For data-dependent experiments, the mass spectrometer was programmed to first record a high-resolution Orbitrap scan then a full-scan ion trap spectrum (m/z 500-2,000). This was followed by 10 data-dependent MS/MS scans (relative collision energy=35%; 3-Da isolation window) triggered of the ion-trap scan and finally two targeted MS/MS scans. The first targeted MS/MS scan was set to isolate and fragment the doubly charged precursor ion of the predicted unnatural amino acid modified peptide
at m/z 752.3. The raw data were searched against the MSDB database using MASCOT (Matrixscience, London, UK) for protein identification and to find the scans containing the target peptides with the unnatural amino acids as variable modification. To estimate fidelity at Y*37 of GFP-pMpa, single ion chromatograms (doubly charged precursor ions at m/z 752.3 for the wt and 759.3 for pMpa) and selected ion chromatograms (y9, y11, and y12) were integrated using the Xcalibur software package (ThermoElectron, San Jose, Calif.).
Intact protein mass spectra were acquired on an automated LC/MS system (Waters, Milford, Mass.) consisting of a capillary LC with auto-sampler and a QTOF2 mass spectrometer. GFP-pMpa (0.1 mg/ml) was loaded onto a reversed-phase protein Captrap (Michrom Bioresources, Auburn, Calif.) for desalting with 0.1% acetic acid in water and eluted with 80% acetonitrile/0.1% acetic acid at 5 μl/min into the ESI source of the mass spectrometer. […]

## [N-]=[N+]=Nc1ccc(C[C@H](N)C(=O)O)cc1 [pAzpa, p-azidophenylalanine]
[1]
  decay of the amino acid in mutant GFP (tandem MS): Most of pAzpa decays to pAmpa
[2]
  yield of mutant GFP containing the unnatural amino acid: ~1 μg per 2×10^7 cells
[3]
  wild type peptide signals in tandem MS of mutant GFP sample: No wild type signals could be detected
